{"source": "patent US20220323548A1", "about": "(priority 2019, published 2022)", "key": {"Solubility by HPLC": {"test": "Solubility by HPLC", "format": "physicochemical", "details": "at 10 mg/ml"}, "human GLP-1R [1]": {"target": "T1, human GLP-1R (Homo sapiens, UniProt P43220)", "T1 sequence (P43220 24-463)": "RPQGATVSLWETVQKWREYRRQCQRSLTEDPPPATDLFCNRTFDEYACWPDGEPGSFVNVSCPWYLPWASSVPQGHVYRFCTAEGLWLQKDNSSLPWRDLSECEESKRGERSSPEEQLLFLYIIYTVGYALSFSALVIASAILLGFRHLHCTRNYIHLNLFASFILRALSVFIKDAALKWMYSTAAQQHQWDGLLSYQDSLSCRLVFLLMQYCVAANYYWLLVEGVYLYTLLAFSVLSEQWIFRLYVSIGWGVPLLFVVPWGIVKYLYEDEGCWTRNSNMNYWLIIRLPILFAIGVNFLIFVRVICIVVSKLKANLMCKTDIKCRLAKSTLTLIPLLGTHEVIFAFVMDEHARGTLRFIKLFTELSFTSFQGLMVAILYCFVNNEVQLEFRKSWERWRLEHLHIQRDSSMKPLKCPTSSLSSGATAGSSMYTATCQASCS", "test": "GLP-1 receptor luciferase reporter assay (part I, glycosylated analogs)", "format": "cell-based", "details": "CV-1 cells transfected with human GLP-1R and CRE, Table 2", "description": "Specifically, the fibroblast cell line CV-1 (1×10^4 cells/ml, Korea Cell Line Bank) was cultured on a 96-well white cell culture plate for 24 hours, and then human GLP-1R (pcDNA3.1_hGLP-1R) and cAMP response element (CRE, pcDNA3.1_hCRE) were added to perform transfection. After 24 hours, the medium was exchanged with a serum-free medium, followed by culture for 16 hours, and then each analog was treated for 6 hours. The expression level of luciferase, a reporter gene, by activated GLP-1R, was quantified by a luminometer, and the results are shown in Table 2."}, "rat islets [2]": {"system": "rat islets", "test": "Glucose-dependent insulin secretion from rat islets, rat insulin ELISA (part I)", "format": "cell-based", "details": "28 mM glucose, Table 4", "excerpt": "Specifically, the pancreas of 8-week-old SD rats (Damul Science) was extracted, and islets were isolated."}, "rat islets [3]": {"system": "rat islets", "test": "Glucose-dependent insulin secretion from rat islets, rat insulin ELISA (part II)", "format": "cell-based", "details": "28 mM glucose, Table 9", "excerpt": "The pancreas of 8-week-old SD rats (Damul Science) was extracted, and islets were isolated."}, "human GLP-1R [4]": {"target": "T1, human GLP-1R", "test": "GLP-1 receptor luciferase reporter assay (part II, dimer analogs)", "details": "CV-1 cells transfected with human GLP-1R and CRE, Table 8", "description": "Specifically, the fibroblast cell line CV-1 (1×10^4 cells/ml, Korea Cell Line Bank) was cultured on a 96-well white cell culture plate for 24 hours, and then human GLP-1R (pcDNA3.1_hGLP-1R) and cAMP response element (CRE, pcDNA3.1_hCRE) were added to perform transfection. After 24 hours, the medium was exchanged with a serum-free medium, followed by culture for 16 hours, and then each analog was treated for 6 hours. The expression level of luciferase, a reporter gene, by activated GLP-1R, was quantified by a luminometer, and the results are shown in Table 8."}, "C57BKS/J dbdb mice": {"system": "C57BKS/J dbdb mice", "test": "Anti-diabetic (blood glucose lowering) effect in Type 2 diabetes mouse models", "details": "20 nmole/kg s.c., 0-48 hours"}, "[5]": {"test": "Pharmacokinetics after subcutaneous administration, Exendin-4 EIA (part II)", "details": "mouse, in vivo, sc"}, "human GLP-1R [6]": {"target": "T2, human GLP-1R (human, UniProt P43220 24-463)", "test": "cell-based or functional assay"}, "human GLP-1R [7]": {"target": "T2, human GLP-1R", "test": "cell-based or functional assay", "remark": "listed apart in the source"}}, "note": "Positions of bridges follow the written chain, without caps; N, C: chain ends. Chains are numbered I, II in the order given. No end group written: not given here. *: point of attachment. X1 = CC(=O)N[C@@H]1[C@@H](O)[C@H](O[C@@H]2O[C@H](CO)[C@@H](O[C@@H]3O[C@H](CO[C@H]4O[C@H](CO)[C@@H](O)[C@H](O)[C@@H]4O[C@@H]4O[C@H](CO)[C@@H](O[C@@H]5O[C@H](CO[C@]6(C(=O)OCc7ccccc7)C[C@H](O)[C@@H](NC(C)=O)[C@H]([C@H](O)[C@H](O)CO)O6)[C@H](O)[C@H](O)[C@H]5O)[C@H](O)[C@H]4NC(C)=O)[C@@H](O)[C@H](O[C@H]4O[C@H](CO)[C@@H](O)[C@H](O)[C@@H]4O[C@@H]4O[C@H](CO)[C@@H](O[C@@H]5O[C@H](CO[C@]6(C(=O)OCc7ccccc7)C[C@H](O)[C@@H](NC(C)=O)[C@H]([C@H](O)[C@H](O)CO)O6)[C@H](O)[C@H](O)[C@H]5O)[C@H](O)[C@H]4NC(C)=O)[C@@H]3O)[C@H](O)[C@H]2NC(C)=O)[C@@H](CO)O[C@H]1NC(=O)C*; undeca‑saccharide = not defined here; Decanoyl = CCCCCCCCCC(=O)*", "data": [{"molecule": "CCCCCCCCCC(=O)NCCCC[C@H](NC(=O)[C@H](CO)NC(=O)[C@@H]1CCCN1C(=O)CNC(=O)CNC(=O)[C@H](CSCC(=O)N[C@@H]1O[C@H](CO)[C@@H](O[C@@H]2O[C@H](CO)[C@@H](O[C@@H]3O[C@H](CO[C@H]4O[C@H](CO)[C@@H](O)[C@H](O)[C@@H]4O[C@@H]4O[C@H](CO)[C@@H](O[C@@H]5O[C@H](CO[C@]6(C(=O)OCc7ccccc7)C[C@H](O)[C@@H](NC(C)=O)[C@H]([C@H](O)[C@H](O)CO)O6)[C@H](O)[C@H](O)[C@H]5O)[C@H](O)[C@H]4NC(C)=O)[C@@H](O)[C@H](O[C@H]4O[C@H](CO)[C@@H](O)[C@H](O)[C@@H]4O[C@@H]4O[C@H](CO)[C@@H](O[C@@H]5O[C@H](CO[C@]6(C(=O)OCc7ccccc7)C[C@H](O)[C@@H](NC(C)=O)[C@H]([C@H](O)[C@H](O)CO)O6)[C@H](O)[C@H](O)[C@H]5O)[C@H](O)[C@H]4NC(C)=O)[C@@H]3O)[C@H](O)[C@H]2NC(C)=O)[C@H](O)[C@H]1NC(C)=O)NC(=O)[C@H](CCCCN)NC(=O)[C@H](CC(C)C)NC(=O)[C@H](Cc1c[nH]c2ccccc12)NC(=O)[C@H](CCC(=O)O)NC(=O)[C@@H](NC(=O)[C@H](Cc1ccccc1)NC(=O)[C@H](CC(C)C)NC(=O)[C@H](CCCNC(=N)N)NC(=O)[C@@H](NC(=O)[C@H](C)NC(=O)[C@H](CSCC(=O)N[C@@H]1O[C@H](CO)[C@@H](O[C@@H]2O[C@H](CO)[C@@H](O[C@@H]3O[C@H](CO[C@H]4O[C@H](CO)[C@@H](O)[C@H](O)[C@@H]4O[C@@H]4O[C@H](CO)[C@@H](O[C@@H]5O[C@H](CO[C@]6(C(=O)OCc7ccccc7)C[C@H](O)[C@@H](NC(C)=O)[C@H]([C@H](O)[C@H](O)CO)O6)[C@H](O)[C@H](O)[C@H]5O)[C@H](O)[C@H]4NC(C)=O)[C@@H](O)[C@H](O[C@H]4O[C@H](CO)[C@@H](O)[C@H](O)[C@@H]4O[C@@H]4O[C@H](CO)[C@@H](O[C@@H]5O[C@H](CO[C@]6(C(=O)OCc7ccccc7)C[C@H](O)[C@@H](NC(C)=O)[C@H]([C@H](O)[C@H](O)CO)O6)[C@H](O)[C@H](O)[C@H]5O)[C@H](O)[C@H]4NC(C)=O)[C@@H]3O)[C@H](O)[C@H]2NC(C)=O)[C@H](O)[C@H]1NC(C)=O)NC(=O)[C@H](CCC(=O)O)NC(=O)[C@H](CCC(=O)O)NC(=O)[C@H](CCSC)NC(=O)[C@H](CCC(N)=O)NC(=O)[C@H](CCCCN)NC(=O)[C@H](CO)NC(=O)[C@H](CC(C)C)NC(=O)[C@H](CC(=O)O)NC(=O)[C@H](CO)NC(=O)[C@@H](NC(=O)[C@H](Cc1ccccc1)NC(=O)[C@@H](NC(=O)CNC(=O)[C@H](CCC(=O)O)NC(=O)CNC(=O)[C@@H](N)Cc1c[nH]cn1)[C@@H](C)O)[C@@H](C)O)C(C)C)[C@@H](C)CC)C(=O)O", "note": "[AGM-212(E17C-11 sugar & N28C-11 sugar)]", "values": [{"measurement": "solubility", "setting": "Solubility by HPLC; H2O", "value": "< 8300", "unit": "µg/mL"}, {"measurement": "solubility", "setting": "Solubility by HPLC; PBS", "value": "< 9500", "unit": "µg/mL"}, {"measurement": "Emax (fold induction over basal)", "setting": "human GLP-1R [1]", "value": "9.8 ± 1.3", "unit": "fold induction over basal"}, {"measurement": "Insulin secretion from rat islets", "setting": "rat islets [2]; 10 nM analog", "value": "11250.94 ± 624.53", "unit": "pg/mL"}, {"measurement": "Insulin secretion from rat islets", "setting": "rat islets [2]; 100 nM analog", "value": "22183.40 ± 830.19", "unit": "pg/mL"}]}, {"molecule": "CCCCCCCCCC(=O)NCCCC[C@H](NC(=O)[C@H](CO)NC(=O)[C@@H]1CCCN1C(=O)CNC(=O)CNC(=O)[C@H](CC(N)=O)NC(=O)[C@H](CCCCN)NC(=O)[C@H](CC(C)C)NC(=O)[C@H](Cc1c[nH]c2ccccc12)NC(=O)[C@H](CSCC(=O)N[C@@H]1O[C@H](CO)[C@@H](O[C@@H]2O[C@H](CO)[C@@H](O[C@@H]3O[C@H](CO[C@H]4O[C@H](CO)[C@@H](O)[C@H](O)[C@@H]4O[C@@H]4O[C@H](CO)[C@@H](O[C@@H]5O[C@H](CO[C@]6(C(=O)OCc7ccccc7)C[C@H](O)[C@@H](NC(C)=O)[C@H]([C@H](O)[C@H](O)CO)O6)[C@H](O)[C@H](O)[C@H]5O)[C@H](O)[C@H]4NC(C)=O)[C@@H](O)[C@H](O[C@H]4O[C@H](CO)[C@@H](O)[C@H](O)[C@@H]4O[C@@H]4O[C@H](CO)[C@@H](O[C@@H]5O[C@H](CO[C@]6(C(=O)OCc7ccccc7)C[C@H](O)[C@@H](NC(C)=O)[C@H]([C@H](O)[C@H](O)CO)O6)[C@H](O)[C@H](O)[C@H]5O)[C@H](O)[C@H]4NC(C)=O)[C@@H]3O)[C@H](O)[C@H]2NC(C)=O)[C@H](O)[C@H]1NC(C)=O)NC(=O)[C@@H](NC(=O)[C@H](Cc1ccccc1)NC(=O)[C@H](CC(C)C)NC(=O)[C@H](CCCNC(=N)N)NC(=O)[C@@H](NC(=O)[C@H](C)NC(=O)[C@H](CSSC[C@H](NC(=O)[C@H](CCC(=O)O)NC(=O)[C@H](CCC(=O)O)NC(=O)[C@H](CCSC)NC(=O)[C@H](CCC(N)=O)NC(=O)[C@H](CCCCN)NC(=O)[C@H](CO)NC(=O)[C@H](CC(C)C)NC(=O)[C@H](CC(=O)O)NC(=O)[C@H](CO)NC(=O)[C@@H](NC(=O)[C@H](Cc1ccccc1)NC(=O)[C@@H](NC(=O)CNC(=O)[C@H](CCC(=O)O)NC(=O)CNC(=O)[C@@H](N)Cc1c[nH]cn1)[C@@H](C)O)[C@@H](C)O)C(=O)N[C@@H](C)C(=O)N[C@H](C(=O)N[C@@H](CCCNC(=N)N)C(=O)N[C@@H](CC(C)C)C(=O)N[C@@H](Cc1ccccc1)C(=O)N[C@H](C(=O)N[C@@H](CSCC(=O)N[C@@H]1O[C@H](CO)[C@@H](O[C@@H]2O[C@H](CO)[C@@H](O[C@@H]3O[C@H](CO[C@H]4O[C@H](CO)[C@@H](O)[C@H](O)[C@@H]4O[C@@H]4O[C@H](CO)[C@@H](O[C@@H]5O[C@H](CO[C@]6(C(=O)OCc7ccccc7)C[C@H](O)[C@@H](NC(C)=O)[C@H]([C@H](O)[C@H](O)CO)O6)[C@H](O)[C@H](O)[C@H]5O)[C@H](O)[C@H]4NC(C)=O)[C@@H](O)[C@H](O[C@H]4O[C@H](CO)[C@@H](O)[C@H](O)[C@@H]4O[C@@H]4O[C@H](CO)[C@@H](O[C@@H]5O[C@H](CO[C@]6(C(=O)OCc7ccccc7)C[C@H](O)[C@@H](NC(C)=O)[C@H]([C@H](O)[C@H](O)CO)O6)[C@H](O)[C@H](O)[C@H]5O)[C@H](O)[C@H]4NC(C)=O)[C@@H]3O)[C@H](O)[C@H]2NC(C)=O)[C@H](O)[C@H]1NC(C)=O)C(=O)N[C@@H](Cc1c[nH]c2ccccc12)C(=O)N[C@@H](CC(C)C)C(=O)N[C@@H](CCCCN)C(=O)N[C@@H](CC(N)=O)C(=O)NCC(=O)NCC(=O)N1CCC[C@H]1C(=O)N[C@@H](CO)C(=O)N[C@@H](CCCCNC(=O)CCCCCCCCC)C(=O)O)[C@@H](C)CC)C(C)C)NC(=O)[C@H](CCC(=O)O)NC(=O)[C@H](CCC(=O)O)NC(=O)[C@H](CCSC)NC(=O)[C@H](CCC(N)=O)NC(=O)[C@H](CCCCN)NC(=O)[C@H](CO)NC(=O)[C@H](CC(C)C)NC(=O)[C@H](CC(=O)O)NC(=O)[C@H](CO)NC(=O)[C@@H](NC(=O)[C@H](Cc1ccccc1)NC(=O)[C@@H](NC(=O)CNC(=O)[C@H](CCC(=O)O)NC(=O)CNC(=O)[C@@H](N)Cc1c[nH]cn1)[C@@H](C)O)[C@@H](C)O)C(C)C)[C@@H](C)CC)C(=O)O", "note": "[AGM-212-1, AGM-212(E17C & E24C-11 sugar)-S-S-AGM-212(E17C & E24C-11 sugar)]", "values": [{"measurement": "Insulin secretion from rat islets", "setting": "rat islets [3]; 10 nM analog", "value": "14506.04 ± 3493.9", "unit": "pg/mL"}, {"measurement": "Insulin secretion from rat islets", "setting": "rat islets [3]; 100 nM analog", "value": "20080 ± 8384.9", "unit": "pg/mL"}, {"measurement": "Emax (fold induction over basal)", "setting": "human GLP-1R [4]", "value": "10.1 ± 1.2", "unit": "fold induction over basal"}, {"measurement": "anti-diabetic effect (blood glucose lowering)", "setting": "C57BKS/J dbdb mice", "value": "reduced anti-diabetic effect"}]}, {"molecule": "I: H-HGEGTFTSDLSKQMEECAVRLFIEWLKC(X1)GGPSK(Decanoyl)-OH / II: H-HGEGTFTSDLSKQMEECAVRLFIEWLKC(X1)GGPSK(Decanoyl)-OH (disulfide I:17-II:17) [AGM-212-2, AGM-212(E17C & N28C-11 sugar)-S-S-AGM-212(E17C & N28C-11 sugar)]", "values": [{"measurement": "Tmax", "setting": "[5]", "value": 2, "unit": "h"}, {"measurement": "half-life", "setting": "[5]", "value": 4.85, "unit": "h"}, {"measurement": "Insulin secretion from rat islets", "setting": "rat islets [3]; 10 nM analog", "value": "14446.79 ± 654.34", "unit": "pg/mL"}, {"measurement": "Insulin secretion from rat islets", "setting": "rat islets [3]; 100 nM analog", "value": "24954.72 ± 2741.89", "unit": "pg/mL"}, {"measurement": "Emax (fold induction over basal)", "setting": "human GLP-1R [4]", "value": "10.2 ± 1.3", "unit": "fold induction over basal"}, {"measurement": "anti-diabetic effect (blood glucose lowering)", "setting": "C57BKS/J dbdb mice", "value": "increased degree of blood glucose lowering compared with Ex4 and AGM-212"}]}, {"molecule": "HGEGTFTSDLSKQMEECAVRLFIEWLKC(undeca‑saccharide)GGPSK(Decanoyl) (reading uncertain; also: homodimer via Cys17–Cys17 disulfide)", "note": "[AGM-212-2]", "values": [{"measurement": "fold change of EC50 level compared with Ex4 (luciferase reporter)", "setting": "human GLP-1R [6]", "value": "≥ 6", "unit": "fold"}, {"measurement": "Emax (fold induction over basal), CRE-luciferase reporter", "setting": "human GLP-1R [7]", "value": 10.2, "unit": "fold induction over basal"}]}]}
